ChEMBL document CHEMBL3044966, “Photosynthesis limitations of grapevine after treatment with the fungicide fludioxonil” (J Agric Food Chem, 2008)

Experiments:
Vitis vinifera [1] = experiment: Inhibition of photosynthesis in Vitis vinifera cv. Pinot noir assessed as in vivo maximum rate of rubisco carboxylation at 6 mM measured 7 days post compound application (reference value: 42.8 +/- 3.2 umol/m2/s); assay type: organism-based; conditions: 168 h, 6000 µM
Vitis vinifera [2] = experiment: Inhibition of photosynthesis in Vitis vinifera cv. Pinot noir assessed as dark respiration at 30 mM measured 7 days post compound application (reference value: 1.6 +/- 0.0 umol/m2/s); assay type: organism-based; conditions: in vivo, 168 h, 30000 µM
Vitis vinifera [3] = experiment: Inhibition of photosynthesis in Vitis vinifera cv. Pinot noir assessed as CO2 compensation point at 30 mM measured 7 days post compound application (reference value: 74.8 +/- 12.7 umol/mol); assay type: organism-based; conditions: in vivo, 168 h, 30000 µM
Vitis vinifera [4] = experiment: Increase in […] CO2 level in Vitis vinifera cv. Pinot noir at 6 mM measured 7 days post compound application; assay type: ADME, organism-based; conditions: in vivo, 168 h, 6000 µM
Vitis vinifera [5] = experiment: Inhibition of photosynthesis in Vitis vinifera cv. Pinot noir assessed as reduction in net photosynthetic rate at 30 mM measured 1 day post compound application; assay type: organism-based; conditions: in vivo, 24 h, 30000 µM
[6] = Inhibition of photosynthesis in Vitis vinifera cv. Pinot noir assessed as change in light compensation point at 6 mM measured 7 days post compound application; assay type: organism-based; conditions: in vivo
Vitis vinifera [7] = experiment: Inhibition of photosynthesis in Vitis vinifera cv. Pinot noir assessed as dark respiration at 1.2 mM measured 7 days post compound application (reference value: 1.6 +/- 0.0 umol/m2/s); assay type: organism-based; conditions: in vivo, 168 h, 1200 µM
Vitis vinifera [8] = experiment: Inhibition of photosynthesis in Vitis vinifera cv. Pinot noir assessed as CO2 compensation point at 1.2 mM measured 7 days post compound application (reference value: 74.8 +/- 12.7 umol/mol); assay type: organism-based; conditions: in vivo, 168 h, 1200 µM
[9] = Inhibition of photosynthesis in Vitis vinifera cv. Pinot noir assessed as reduction in dark respiration at 1.2 mM measured 7 days post compound application; assay type: organism-based; conditions: in vivo
Vitis vinifera [10] = experiment: Inhibition of photosynthesis in Vitis vinifera cv. Pinot noir assessed as intercellular CO2 concentration-saturated net CO2 assimilation rate at 6 mM measured 7 days post compound application (reference value: 11.3 +/- 0.8 umol/m2/s); assay type: organism-based; conditions: in vivo, 168 h, 6000 µM
Vitis vinifera [11] = experiment: Inhibition of photosynthesis in Vitis vinifera cv. Pinot noir assessed as PPFD-saturated net CO2 assimilation rate at 1.2 mM measured 7 days post compound application (reference value: 8.9 +/- 1.5 umol/m2/s); assay type: organism-based; conditions: in vivo, 168 h, 1200 µM
[12] = Inhibition of photosynthesis in Vitis vinifera cv. Pinot noir assessed as reduction in net photosynthetic rate at 1.2 mM measured 1 day post compound application; assay type: organism-based; conditions: in vivo
Vitis vinifera [13] = experiment: Inhibition of photosynthesis in Vitis vinifera cv. Pinot noir assessed as in vivo maximum rate of rubisco carboxylation at 1.2 mM measured 7 days post compound application (reference value: 42.8 +/- 3.2 umol/m2/s); assay type: organism-based; conditions: 168 h, 1200 µM
Vitis vinifera [14] = experiment: Inhibition of photosynthesis in Vitis vinifera cv. Pinot noir assessed as dark respiration at 6 mM measured 7 days post compound application (reference value: 1.6 +/- 0.0 umol/m2/s); assay type: organism-based; conditions: in vivo, 168 h, 6000 µM
Vitis vinifera [15] = experiment: Inhibition of photosynthesis in Vitis vinifera cv. Pinot noir assessed as apparent quantum yield of CO2 fixation at 30 mM measured 7 days post compound application (reference value: 0.07 +/- 0.01 no unit) umol/m2/s); assay type: organism-based; conditions: in vivo, 168 h, 30000 µM
Vitis vinifera [16] = experiment: Increase in […] CO2 level in Vitis vinifera cv. Pinot noir at 1.2 mM measured 7 days post compound application; assay type: ADME, organism-based; conditions: in vivo, 168 h, 1200 µM
Vitis vinifera [17] = experiment: Effect on […] CO2 level in Vitis vinifera cv. Pinot noir at 1.2 to 30 mM measured 1 day post compound application; assay type: ADME, organism-based; conditions: in vivo, 24 h, 30000 µM
Vitis vinifera [18] = experiment: Inhibition of photosynthesis in Vitis vinifera cv. Pinot noir assessed as ratio of apparent quantum yield of photo system 2 to apparent quantum yield yield of CO2 fixation at 30 mM measured 7 days post compound application (reference value: 10 +/- 1.7 no unit); assay type: organism-based; conditions: in vivo, 168 h, 30000 µM
[19] = Inhibition of photosynthesis in Vitis vinifera cv. Pinot noir assessed as reduction in apparent quantum yield of CO2 fixation at 1.2 to 30 mM measured 7 days post compound application; assay type: organism-based; conditions: in vivo
Vitis vinifera [20] = experiment: Inhibition of photosynthesis in Vitis vinifera cv. Pinot noir assessed as ratio of apparent quantum yield of photo system 2 to apparent quantum yield yield of CO2 fixation at 6 mM measured 7 days post compound application (reference value: 10 +/- 1.7 no unit); assay type: organism-based; conditions: in vivo, 168 h, 6000 µM
Vitis vinifera [21] = experiment: Inhibition of photosynthesis in Vitis vinifera cv. Pinot noir assessed as PPFD-saturated net CO2 assimilation rate at 30 mM measured 7 days post compound application (reference value: 8.9 +/- 1.5 umol/m2/s); assay type: organism-based; conditions: in vivo, 168 h, 30000 µM
Vitis vinifera [22] = experiment: Inhibition of photosynthesis in Vitis vinifera cv. Pinot noir assessed as mitochondrial respiration in the light at 6 mM measured 7 days post compound application (reference value: 3.2 +/- 0.5 umol/m2/s); assay type: organism-based; conditions: in vivo, 168 h, 6000 µM
Vitis vinifera [23] = experiment: Toxicity in Vitis vinifera cv. Pinot noir assessed as effect on gas exchanges at 1.2 to 30 mM measured 10 days post compound application; assay type: organism-based; conditions: in vivo, 240 h, 30000 µM
Vitis vinifera [24] = experiment: Inhibition of photosynthesis in Vitis vinifera cv. Pinot noir assessed as mitochondrial respiration in the light at 1.2 mM measured 7 days post compound application (reference value: 3.2 +/- 0.5 umol/m2/s); assay type: organism-based; conditions: in vivo, 168 h, 1200 µM
Vitis vinifera [25] = experiment: Inhibition of photosynthesis in Vitis vinifera cv. Pinot noir assessed as in vivo maximum rate of rubisco carboxylation at 30 mM measured 7 days post compound application (reference value: 42.8 +/- 3.2 umol/m2/s); assay type: organism-based; conditions: 168 h, 30000 µM
Vitis vinifera [26] = experiment: Inhibition of photosynthesis in Vitis vinifera cv. Pinot noir assessed as ratio of apparent quantum yield of photo system 2 to apparent quantum yield yield of CO2 fixation at 1.2 mM measured 7 days post compound application (reference value: 10 +/- 1.7 no unit); assay type: organism-based; conditions: in vivo, 168 h, 1200 µM
Vitis vinifera [27] = experiment: Inhibition of photosynthesis in Vitis vinifera cv. Pinot noir assessed as mitochondrial respiration in the light at 30 mM measured 7 days post compound application (reference value: 3.2 +/- 0.5 umol/m2/s); assay type: organism-based; conditions: in vivo, 168 h, 30000 µM

With `N#Cc1c[nH]cc1-c1cccc2c1OC(F)(F)O2` [FLUDIOXONIL] the Activity (Vitis vinifera [1]) was 44.1 micromol/m2/s, the Activity (Vitis vinifera [2]) was 1.4 micromol/m2/s and the Activity (Vitis vinifera [3]) was 267 umol/mol. For the same compound, the Activity (Vitis vinifera [4]) was 20%, the Activity (Vitis vinifera [5]) was “Toxic” and the inhibition at 168 h, 6000 µM [6] was 20%. For the same compound, the Activity (Vitis vinifera [7]) was 0.8 micromol/m2/s, the Activity (Vitis vinifera [8]) was 84.9 umol/mol and the inhibition at 168 h, 1200 µM [9] was 30%. The Activity (Vitis vinifera [10]) was 11.5 micromol/m2/s, the Activity (Vitis vinifera [11]) was 7.7 micromol/m2/s and the inhibition at 24 h, 1200 µM [12] was 30%. It also gave an Activity (Vitis vinifera [13]) of 38 micromol/m2/s, an Activity (Vitis vinifera [14]) of 1.2 micromol/m2/s and an Activity (Vitis vinifera [15]) of 0.04. The Activity (Vitis vinifera [16]) was 13%, the Activity (Vitis vinifera [17]) was “Non-toxic” and the Ratio (Vitis vinifera [18]) was 19.2. It also gave an inhibition at 168 h, up to 30000 µM [19] of 30%, a Ratio (Vitis vinifera [20]) of 16.3 and an Activity (Vitis vinifera [21]) of 9.4 micromol/m2/s. The Activity (Vitis vinifera [22]) was 3.6 micromol/m2/s, the Activity (Vitis vinifera [23]) was “Non-toxic” and the Activity (Vitis vinifera [24]) was 3.2 micromol/m2/s. For the same compound, the Activity (Vitis vinifera [25]) was 46.7 micromol/m2/s, the Ratio (Vitis vinifera [26]) was 17.4 and the Activity (Vitis vinifera [27]) was 12.6 micromol/m2/s.
